Data from a melting point compilation (Tetko et al.; mined from patent text by program, amines drawn as free bases though some values may be those of a salt).

| Structure (SMILES) | melting point [°C] |
| --- | --- |
| COc1ccc(S(=O)(=O)n2c(CCCC(=O)O)cc3nc(Cl)ccc32)cc1 | 189 |
| CC(C)(C)c1ccc(-c2nc(COc3cccc4cc(NS(=O)(=O)C(F)(F)F)ccc34)cs2)cc1 | 174 to 175 |
| CCC1C(c2cccnc2Cl)=NOC1(C)O (centres undefined) | 71 |
| CS(=O)(=O)Nc1ccc2c(c1)CC(=O)N2CCN1CCN(Cc2ccccc2)CC1 | 196 to 198 |
| O=C(Cc1ccc(C(F)(F)F)cn1)c1ccc(Cl)cc1 | 114 to 116 |
| COc1ccc(-c2nc3cnccc3[nH]2)c(O)c1 | 255 |
| COc1cn(-c2ccc(-n3cccn3)cc2F)nc(-c2ccnn2-c2ccccc2)c1=O | 214 to 216 |
| CC(=O)Nc1ccc(-c2ccoc2)cc1[N+](=O)[O-] | 152 to 154 |
| CC(Oc1ccc(NC(=O)NC(=O)c2ccccc2Cl)cc1)c1ccccc1 (centres undefined) | 166 to 167 |
| COc1ccc(CC(C)NCC(O)c2ccccc2OC)cc1OC (centres undefined) | 125 to 126 |
| CCOC(=O)Cc1c(C)n(Cc2ccc3ccccc3c2)c2ccc(OCc3csc(-c4ccccc4)n3)cc12 | 118 to 119 |
| O=c1[nH]c2ccccc2n1-c1cc(Cl)ccc1O | 248 to 250 |
| CCCCCCCCCCCCCCCCOc1cc(C(=O)O)c(O)c2ccccc12 | 121 to 124 |
| O=C(NCC(=O)N1CCCC1)c1ccc(-c2ccc3nnn(Cc4ccc5ncccc5c4)c3n2)cc1F | 175 to 177 |
| CC[C@@H](c1ccccc1)N(Cc1cccc(C(=O)O)c1)S(=O)(=O)c1ccc(Cl)cc1 | 65 to 67 |
| CCOP1(=S)OCc2cc(C)cnc2O1 (centres undefined) | 54 to 55 |
| O=c1c2c(Cl)cc(N3CCNCC3)cc2n(Cc2ccccc2)c(=O)n1Cc1cccc(I)c1 | 98 to 104 |

Second part, the molecule after the results:

| melting point [°C] | Structure (SMILES) |
| --- | --- |
| 174 to 176 | Cn1ncc(C(N)=O)c1-c1ccc([N+](=O)[O-])o1 |
| 120 to 121 | CC1(C)OC(c2ccc(S(N)(=O)=O)cc2)=C(c2cc3ccccc3s2)C1=O |
| 132 to 134 | CCOC(=O)c1cc(-c2ccc(Cl)cc2)cnc1C(Cl)Cl |
| 178 to 179 | COc1ccc(C(=O)c2c(N)sc3c2CCSC3)cc1 |
| 210 to 213 | Cc1nc(N2CCC(c3ccccc3)CC2)c([N+](=O)[O-])c(=O)[nH]1 |
| 274 | O=C1Nc2ccsc2C(=O)N2CC[C@@H]12 |
| 234 to 235 | CC(=O)NC[C@H]1CN(c2ccc(C(=O)c3cnc4ccc(Cl)cn34)cc2)C(=O)O1 |
| 170 to 172 | CC1CCC(C(C)C)C(OC(=O)N[C@@]2(C)CCC(=O)NC2=O)C1 (some centres undefined) |
| 135 to 145 | COC(=O)C1=C(C)NC(C)=C(C(=O)OC)C1c1cccc(NC(=NC#N)N(C)CCCN2CCC(c3ccccc3)CC2)c1 |
| 137 to 139 | CC(C)C1NC(=O)CN1C(=O)CNC(=O)OCc1ccccc1 (centres undefined) |
| 161 to 164 | CCOC(=O)c1ccc2cc(Cl)ccn2c1=O |
| 158 to 159 | COc1cccc(-c2ccc3cc(OC)ccc3c2C(=O)c2ccc(O)cc2)c1 |
| 216 to 218 | Cc1nn(C)c2c(Nc3ccc(S(C)(=O)=O)cc3)nc(-c3ccc(F)cc3)nc12 |
| 72.5 to 73.5 | COc1cccnc1CO |
| 175 | CCN1CC(=O)Nc2cc(Nc3ncc(Cl)c(Nc4ccccc4S(=O)(=O)N(C)C)n3)c(OC)cc2C1 |
| 198 to 200 | COc1cnc(CSc2nc3cc4c(cc3[nH]2)OCO4)cc1OC |
| 92 to 100 | CC1CC(N)=C(C#N)C1C (centres undefined) |
| 228 to 230 | CCOC(=O)c1cn(C2CCCCC2)c2cc(C#Cc3cc(Cc4cnc(N)nc4N)cc(OC)c3OC)ccc2c1=O |
| 67 to 68 | COc1cc(C)nn1-c1ccc(Br)cc1 |
| 83 to 85 | CC(C)(C)OC(=O)N[C@@H](CC1CCCCC1)[C@@H](O)[C@@H](O)C1CC1 |
| 199 to 200 | N#Cc1[nH]c2ccc(Cl)cc2c1-c1c(F)cccc1F |
| > 250 | NC(=O)Cc1ccc(N/C=C2\C(=O)Nc3ccccc32)cc1 |
